Assay results taken from ChEMBL document CHEMBL5518188, “Discovery of 4-amino-1,6-dihydro-7H-pyrrolo[2,3-d]pyridazin-7-one derivatives as potential receptor-interacting serine/threonine-protein kinase 1 (RIPK1) inhibitors” (Eur J Med Chem, 2024).
Activity calls are given as the source filed them. The rule behind the calls is not given here.

Tests used:
[1] = target: T1, Receptor-interacting serine/threonine-protein kinase 1 (Homo sapiens, UniProt Q13546); assay: Inhibition of RIPK1 (unknown origin) in presence of ATP by kinaseProfiler assay
T1 sequence (Q13546 whole entry): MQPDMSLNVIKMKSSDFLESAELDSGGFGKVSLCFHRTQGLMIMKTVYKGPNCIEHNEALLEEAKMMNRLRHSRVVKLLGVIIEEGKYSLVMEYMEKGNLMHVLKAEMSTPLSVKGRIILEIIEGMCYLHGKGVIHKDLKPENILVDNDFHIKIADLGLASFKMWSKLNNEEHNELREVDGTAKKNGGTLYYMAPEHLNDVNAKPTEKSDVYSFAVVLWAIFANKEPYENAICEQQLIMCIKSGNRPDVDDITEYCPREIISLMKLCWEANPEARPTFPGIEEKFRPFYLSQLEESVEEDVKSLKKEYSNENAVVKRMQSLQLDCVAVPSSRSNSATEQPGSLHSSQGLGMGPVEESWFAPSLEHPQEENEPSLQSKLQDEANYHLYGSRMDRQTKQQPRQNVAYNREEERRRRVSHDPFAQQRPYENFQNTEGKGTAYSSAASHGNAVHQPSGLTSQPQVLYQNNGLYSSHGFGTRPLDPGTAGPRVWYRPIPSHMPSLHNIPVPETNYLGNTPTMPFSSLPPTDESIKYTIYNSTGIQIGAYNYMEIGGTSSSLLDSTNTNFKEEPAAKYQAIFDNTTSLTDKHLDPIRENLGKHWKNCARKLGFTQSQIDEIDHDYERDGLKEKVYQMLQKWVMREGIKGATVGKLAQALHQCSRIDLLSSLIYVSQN

HT-29 = assay: Anti-necroptosis activity against TSZ-induced human HT-29 cells; format: functional, cell-based
U-937 = assay: Anti-necroptosis activity against TSZ-induced human U-937 cells; format: functional, cell-based
[2] = Tmax in BALB/c mouse at 10 mg/kg, po; format: ADME, organism-based; settings: in vivo
[3] = Half life in BALB/c mouse at 10 mg/kg, po; format: ADME, organism-based; settings: BALB/c, in vivo
[4] = AUC (0 to t) in BALB/c mouse at 10 mg/kg, po; format: ADME, organism-based; settings: BALB/c, in vivo
[5] = AUC (0 to t) in BALB/c mouse at 10 mg/kg, iv; format: ADME, organism-based; settings: BALB/c, in vivo
[6] = Apparent volume of distribution in BALB/c mouse at 10 mg/kg, iv; format: ADME, organism-based; settings: in vivo, read-out: Vz
[7] = target: T1, Receptor-interacting serine/threonine-protein kinase 1; assay: Binding affinity to RIPK1 (unknown origin) assessed as dissociation constant
[8] = target: T2, Mixed lineage kinase domain-like protein (Homo sapiens, UniProt Q8NB16); assay: Binding affinity to MLKL (unknown origin) assessed as dissociation constant
T2 sequence (Q8NB16 whole entry): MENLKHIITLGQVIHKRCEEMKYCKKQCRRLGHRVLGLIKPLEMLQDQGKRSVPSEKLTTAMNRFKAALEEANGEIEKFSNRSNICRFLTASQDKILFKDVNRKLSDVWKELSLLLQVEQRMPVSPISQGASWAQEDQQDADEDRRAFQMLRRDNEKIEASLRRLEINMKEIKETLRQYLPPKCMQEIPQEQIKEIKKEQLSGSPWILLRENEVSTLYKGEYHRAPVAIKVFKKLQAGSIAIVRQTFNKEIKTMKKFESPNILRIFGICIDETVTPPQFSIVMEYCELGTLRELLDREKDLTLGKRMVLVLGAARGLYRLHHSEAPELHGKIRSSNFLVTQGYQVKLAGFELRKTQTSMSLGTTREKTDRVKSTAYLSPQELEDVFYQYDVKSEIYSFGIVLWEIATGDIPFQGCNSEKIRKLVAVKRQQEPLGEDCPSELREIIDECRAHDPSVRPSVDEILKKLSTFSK

[9] = target: Vascular endothelial growth factor receptor 1 (Homo sapiens) (UniProt P17948); assay: Inhibition of FLT1 (unknown origin)
[10] = target: Vascular endothelial growth factor receptor 3 (Homo sapiens) (UniProt P35916); assay: Inhibition of FLT4 (unknown origin)
[11] = target: High affinity nerve growth factor receptor (Homo sapiens) (UniProt P04629); assay: Inhibition of TRKA (unknown origin)
[12] = target: NT-3 growth factor receptor (Homo sapiens) (UniProt Q16288); assay: Inhibition of TRKC (unknown origin)
[13] = target: Eukaryotic translation initiation factor 2-alpha kinase 1 (Homo sapiens) (UniProt Q9BQI3); assay: Inhibition of HRI (unknown origin)
[14] = target: Tyrosine-protein kinase Lyn (Homo sapiens) (UniProt P07948); assay: Inhibition of LYN (unknown origin)
[15] = target: T3, Receptor-interacting serine/threonine-protein kinase 1 (Homo sapiens) (UniProt Q13546); settings: HT-29, dose 3.0 nM, time 6.0 hrs
T3 sequence (whole entry): T1 sequence (Q13546 whole entry)

[16] = target: Receptor-interacting serine/threonine-protein kinase 3 (Homo sapiens, UniProt Q9Y572); settings: HT-29, dose 3.0 nM, time 6.0 hrs
[17] = target: T4, Mixed lineage kinase domain-like protein (Homo sapiens) (UniProt Q8NB16); settings: HT-29, dose 30.0 nM, time 6.0 hrs
T4 sequence (whole entry): T2 sequence (Q8NB16 whole entry)

[18] = target: T3, Receptor-interacting serine/threonine-protein kinase 1 (Homo sapiens); settings: HT-29, dose 300.0 nM, time <= 6.0 hrs, TDE = time-dependent effect
Description: Inhibition of RIPK1 phosphorylation in TSZ-induced human HT-29 cells at 300 nM by Western blot analysis

Chain of Tyrosine-protein kinase Lyn (Homo sapiens) (P07948 2-512 limits assumed): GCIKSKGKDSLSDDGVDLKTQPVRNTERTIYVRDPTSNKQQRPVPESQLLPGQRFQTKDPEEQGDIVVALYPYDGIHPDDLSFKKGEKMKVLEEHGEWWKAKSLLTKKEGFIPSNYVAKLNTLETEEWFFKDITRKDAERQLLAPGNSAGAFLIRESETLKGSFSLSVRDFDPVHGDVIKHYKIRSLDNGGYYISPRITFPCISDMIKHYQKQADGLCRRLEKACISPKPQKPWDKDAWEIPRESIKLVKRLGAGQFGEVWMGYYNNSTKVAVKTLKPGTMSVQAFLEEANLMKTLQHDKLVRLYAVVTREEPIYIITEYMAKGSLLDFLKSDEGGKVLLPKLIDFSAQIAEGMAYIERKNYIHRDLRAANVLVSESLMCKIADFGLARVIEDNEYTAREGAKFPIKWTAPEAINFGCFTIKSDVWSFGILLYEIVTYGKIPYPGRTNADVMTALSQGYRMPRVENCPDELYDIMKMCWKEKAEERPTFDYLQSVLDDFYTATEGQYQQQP
Chain of NT-3 growth factor receptor (Homo sapiens) (Q16288 32-839 limits assumed): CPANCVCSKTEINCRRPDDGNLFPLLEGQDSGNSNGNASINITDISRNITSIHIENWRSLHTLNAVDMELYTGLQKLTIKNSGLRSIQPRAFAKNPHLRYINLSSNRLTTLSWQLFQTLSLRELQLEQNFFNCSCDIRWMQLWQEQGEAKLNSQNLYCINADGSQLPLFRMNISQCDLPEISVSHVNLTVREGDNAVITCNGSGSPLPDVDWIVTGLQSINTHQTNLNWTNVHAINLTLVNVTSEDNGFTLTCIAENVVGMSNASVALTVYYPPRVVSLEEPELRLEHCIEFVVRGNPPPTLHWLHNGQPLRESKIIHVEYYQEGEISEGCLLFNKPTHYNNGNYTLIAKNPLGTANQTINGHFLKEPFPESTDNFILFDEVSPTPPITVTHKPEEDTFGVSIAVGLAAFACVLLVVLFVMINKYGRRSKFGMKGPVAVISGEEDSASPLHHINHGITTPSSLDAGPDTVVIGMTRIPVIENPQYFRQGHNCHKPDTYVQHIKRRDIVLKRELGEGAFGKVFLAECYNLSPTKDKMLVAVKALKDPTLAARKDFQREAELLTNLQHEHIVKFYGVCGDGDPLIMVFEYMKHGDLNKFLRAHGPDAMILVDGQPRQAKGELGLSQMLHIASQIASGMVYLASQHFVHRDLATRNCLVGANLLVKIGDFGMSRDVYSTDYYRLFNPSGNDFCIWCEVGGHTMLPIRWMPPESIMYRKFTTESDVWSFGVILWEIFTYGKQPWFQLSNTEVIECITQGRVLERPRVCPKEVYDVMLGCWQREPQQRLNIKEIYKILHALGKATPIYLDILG
Chain of Receptor-interacting serine/threonine-protein kinase 3 (Q9Y572 whole entry, looked up, the tested form may be a part): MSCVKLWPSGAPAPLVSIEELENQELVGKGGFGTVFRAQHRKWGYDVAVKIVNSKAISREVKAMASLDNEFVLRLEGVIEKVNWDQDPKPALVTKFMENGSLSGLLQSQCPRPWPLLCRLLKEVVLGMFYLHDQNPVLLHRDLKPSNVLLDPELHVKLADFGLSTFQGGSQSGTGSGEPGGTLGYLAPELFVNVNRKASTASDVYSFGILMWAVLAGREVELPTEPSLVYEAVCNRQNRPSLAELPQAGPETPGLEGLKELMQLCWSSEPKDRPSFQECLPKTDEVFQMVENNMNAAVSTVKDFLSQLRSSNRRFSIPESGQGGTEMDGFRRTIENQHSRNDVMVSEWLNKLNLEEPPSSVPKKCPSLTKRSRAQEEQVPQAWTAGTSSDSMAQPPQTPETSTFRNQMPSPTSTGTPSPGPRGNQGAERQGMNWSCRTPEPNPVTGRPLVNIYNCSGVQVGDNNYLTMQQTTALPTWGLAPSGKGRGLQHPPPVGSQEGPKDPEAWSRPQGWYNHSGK
Chain of Eukaryotic translation initiation factor 2-alpha kinase 1 (Homo sapiens) (Q9BQI3 whole entry): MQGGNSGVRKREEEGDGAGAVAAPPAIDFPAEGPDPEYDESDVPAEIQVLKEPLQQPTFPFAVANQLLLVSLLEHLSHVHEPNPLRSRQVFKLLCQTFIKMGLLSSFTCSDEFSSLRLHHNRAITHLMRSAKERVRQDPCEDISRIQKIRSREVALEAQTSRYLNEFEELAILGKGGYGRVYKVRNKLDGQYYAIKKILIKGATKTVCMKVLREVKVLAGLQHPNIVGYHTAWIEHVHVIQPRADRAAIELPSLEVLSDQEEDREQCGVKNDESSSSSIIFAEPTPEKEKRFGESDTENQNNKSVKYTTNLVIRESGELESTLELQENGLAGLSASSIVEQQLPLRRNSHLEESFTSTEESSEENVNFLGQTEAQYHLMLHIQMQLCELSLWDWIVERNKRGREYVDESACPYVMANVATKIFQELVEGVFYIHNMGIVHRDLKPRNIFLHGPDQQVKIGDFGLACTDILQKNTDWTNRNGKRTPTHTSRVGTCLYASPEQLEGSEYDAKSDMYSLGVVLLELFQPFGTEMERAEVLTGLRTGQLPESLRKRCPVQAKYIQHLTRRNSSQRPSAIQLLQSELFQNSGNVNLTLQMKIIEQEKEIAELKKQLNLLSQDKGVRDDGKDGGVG
Chain of High affinity nerve growth factor receptor (Homo sapiens) (P04629 33-796 limits assumed): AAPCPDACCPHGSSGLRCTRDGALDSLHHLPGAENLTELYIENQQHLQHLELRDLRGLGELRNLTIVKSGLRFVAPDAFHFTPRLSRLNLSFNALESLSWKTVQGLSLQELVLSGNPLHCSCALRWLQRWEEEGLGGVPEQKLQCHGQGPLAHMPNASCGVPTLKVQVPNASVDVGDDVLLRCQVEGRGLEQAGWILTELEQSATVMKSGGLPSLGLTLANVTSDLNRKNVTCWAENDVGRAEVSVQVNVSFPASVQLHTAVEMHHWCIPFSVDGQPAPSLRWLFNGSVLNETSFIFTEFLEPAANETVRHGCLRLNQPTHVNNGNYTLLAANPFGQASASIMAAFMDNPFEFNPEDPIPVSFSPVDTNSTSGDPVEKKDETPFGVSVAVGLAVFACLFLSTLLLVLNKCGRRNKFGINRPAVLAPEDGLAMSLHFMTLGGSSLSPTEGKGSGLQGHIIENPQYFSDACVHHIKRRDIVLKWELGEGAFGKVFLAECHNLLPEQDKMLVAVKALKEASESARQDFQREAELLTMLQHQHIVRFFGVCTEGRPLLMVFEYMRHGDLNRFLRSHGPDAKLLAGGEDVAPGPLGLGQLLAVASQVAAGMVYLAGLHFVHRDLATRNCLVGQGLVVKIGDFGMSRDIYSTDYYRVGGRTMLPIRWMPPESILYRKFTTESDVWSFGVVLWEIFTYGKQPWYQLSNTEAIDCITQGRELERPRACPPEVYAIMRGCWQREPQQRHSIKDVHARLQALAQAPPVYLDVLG
Chain of Vascular endothelial growth factor receptor 1 (Homo sapiens) (P17948 whole entry): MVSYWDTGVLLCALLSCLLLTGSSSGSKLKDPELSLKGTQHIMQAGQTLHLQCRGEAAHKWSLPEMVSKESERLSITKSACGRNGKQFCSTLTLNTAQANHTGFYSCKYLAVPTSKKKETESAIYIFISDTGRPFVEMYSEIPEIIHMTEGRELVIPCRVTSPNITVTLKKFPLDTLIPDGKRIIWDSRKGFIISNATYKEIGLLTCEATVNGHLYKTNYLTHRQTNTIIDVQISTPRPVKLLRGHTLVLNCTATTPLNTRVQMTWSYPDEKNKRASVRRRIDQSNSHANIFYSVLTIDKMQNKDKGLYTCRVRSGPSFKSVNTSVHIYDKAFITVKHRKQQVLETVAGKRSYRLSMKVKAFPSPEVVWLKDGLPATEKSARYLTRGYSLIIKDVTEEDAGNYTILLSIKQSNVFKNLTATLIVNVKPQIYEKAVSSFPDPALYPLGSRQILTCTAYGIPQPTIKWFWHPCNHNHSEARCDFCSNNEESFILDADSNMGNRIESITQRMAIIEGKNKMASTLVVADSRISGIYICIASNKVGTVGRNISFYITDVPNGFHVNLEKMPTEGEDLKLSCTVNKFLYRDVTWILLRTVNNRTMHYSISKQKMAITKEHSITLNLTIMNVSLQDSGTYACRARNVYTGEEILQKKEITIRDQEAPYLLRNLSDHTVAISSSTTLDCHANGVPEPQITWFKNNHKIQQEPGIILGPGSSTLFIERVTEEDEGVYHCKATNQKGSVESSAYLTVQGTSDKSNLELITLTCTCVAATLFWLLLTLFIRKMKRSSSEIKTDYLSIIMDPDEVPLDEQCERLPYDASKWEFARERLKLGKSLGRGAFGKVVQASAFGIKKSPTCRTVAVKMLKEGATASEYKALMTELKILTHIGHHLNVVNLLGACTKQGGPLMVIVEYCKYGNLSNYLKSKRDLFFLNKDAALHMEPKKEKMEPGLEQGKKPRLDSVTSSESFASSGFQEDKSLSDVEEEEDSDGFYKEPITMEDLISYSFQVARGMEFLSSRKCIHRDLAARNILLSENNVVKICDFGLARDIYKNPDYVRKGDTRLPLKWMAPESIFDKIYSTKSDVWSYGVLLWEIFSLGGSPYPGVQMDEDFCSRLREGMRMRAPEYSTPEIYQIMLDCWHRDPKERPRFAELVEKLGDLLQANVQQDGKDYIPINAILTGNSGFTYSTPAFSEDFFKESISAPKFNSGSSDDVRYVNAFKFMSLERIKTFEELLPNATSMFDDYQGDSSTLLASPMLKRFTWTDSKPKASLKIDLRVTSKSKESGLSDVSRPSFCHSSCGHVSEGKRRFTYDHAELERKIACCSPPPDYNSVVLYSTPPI

CC1(Cn2cc(-c3ccc4c(c3)CCN4C(=O)Cc3cccc(OC(F)(F)F)c3)c3c(N)n[nH]c(=O)c32)COC1
IC50 [1]: 59.8 nM
EC50 (HT-29): 4.58 nM
EC50 (U-937): 3.09 nM
Tmax [2]: 4.8 min
half-life [3]: 62.4 min
AUC(0-t) [4]: 9640 ng·h/mL
AUC(0-t) [5]: 9640 ng·h/mL
Vd [6]: 1.24 L/kg
Kd [7]: 3.5 nM
Kd [8]: > 30000 nM
inhibition [9]: Active
inhibition [10]: Active
inhibition [11]: Active
inhibition [12]: Active
inhibition [13]: Active
inhibition [14]: Active
inhibition [15]: Dose-Dependent Effect
inhibition [16]: Dose-Dependent Effect
inhibition [17]: Dose-Dependent Effect
inhibition [18]: Tde
